Experiments:
Experiment in all cases: stopped-flow CO2 hydration assay
Assay type in all cases: biochemical
[1] = molecular target: T1, Can2-CA (Cryptococcus neoformans, UniProt Q3I4V7); details: read-out: Inhibition constant, Ki (μM) / β-family / Can2
T1 construct: recombinant beta-CA, produced as reported earlier; dimer in the docking model
T1 sequence (Q3I4V7 1-239): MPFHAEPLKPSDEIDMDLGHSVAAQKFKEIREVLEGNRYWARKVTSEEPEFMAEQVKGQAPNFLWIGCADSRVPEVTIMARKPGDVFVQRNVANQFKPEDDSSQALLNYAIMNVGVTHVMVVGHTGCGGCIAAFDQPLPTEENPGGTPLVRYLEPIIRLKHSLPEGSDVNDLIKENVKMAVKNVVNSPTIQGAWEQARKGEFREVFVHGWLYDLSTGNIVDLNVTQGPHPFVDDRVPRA

[2] = molecular target: T2, VchCA (Vibrio cholerae, UniProt A0A086SLX8)
T2 construct: gene can

[3] = molecular target: T3, SspCA (Sulfurihydrogenibium sp. YO3AOP1, UniProt B2V8E3); details: read-out: Inhibition constant, Ki (μM) / α-family / Ssp
T3 construct: recombinant bacterial alpha-CA, produced as reported earlier
T3 sequence (B2V8E3 21-246): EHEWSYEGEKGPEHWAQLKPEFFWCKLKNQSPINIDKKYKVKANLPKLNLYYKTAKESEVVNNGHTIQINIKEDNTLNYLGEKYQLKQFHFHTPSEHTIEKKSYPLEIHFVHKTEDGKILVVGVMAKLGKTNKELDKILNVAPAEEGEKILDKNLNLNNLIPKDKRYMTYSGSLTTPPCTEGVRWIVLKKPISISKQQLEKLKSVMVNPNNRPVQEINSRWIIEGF

[4] = molecular target: T4, hCA IX (Homo sapiens, UniProt Q16790); details: read-out: Inhibition constant, Ki (μM) / α-family / CAI
T4 construct: gene CA9

[5] = molecular target: T5, MgCA (Malassezia globosa, UniProt A8Q1N3); details: read-out: Inhibition constant, Ki (μM) / β-family / Mg
T5 construct: gene MGL_1814
T5 sequence (A8Q1N3 1-241): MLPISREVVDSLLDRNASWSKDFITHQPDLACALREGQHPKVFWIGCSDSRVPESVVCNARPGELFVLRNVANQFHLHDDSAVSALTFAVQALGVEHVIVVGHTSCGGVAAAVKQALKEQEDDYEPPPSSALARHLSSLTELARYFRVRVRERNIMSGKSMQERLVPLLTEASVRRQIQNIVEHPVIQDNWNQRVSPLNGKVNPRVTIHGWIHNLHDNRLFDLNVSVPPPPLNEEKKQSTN

T2 sequence (A0A086SLX8 1-222): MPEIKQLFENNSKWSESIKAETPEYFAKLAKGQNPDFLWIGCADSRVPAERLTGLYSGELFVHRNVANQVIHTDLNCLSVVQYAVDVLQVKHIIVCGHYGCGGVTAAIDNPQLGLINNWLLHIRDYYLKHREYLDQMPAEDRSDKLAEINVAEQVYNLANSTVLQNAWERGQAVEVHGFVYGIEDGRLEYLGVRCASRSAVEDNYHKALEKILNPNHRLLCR

SMILES | Ki [1] [µM] | Ki [2] [µM] | other results
NC(=O)c1ccc[n+]([O-])c1N [compound 5, 5] | 1.7 | 2.1 | 
CCc1cc(C(C)C)c(C(N)=O)c(N)[n+]1[O-] [compound 13, 13] |  | 2.8 | 
CCc1cc(C)[n+]([O-])c(N)c1C(N)=O [compound 19, 19] |  |  | Ki [3]: 42.2 µM
NC(=O)c1ncc[n+]([O-])c1N [compound 30, 30] | 1.1 |  | Ki [4]: > 100 µM; Ki [5]: 6.7 µM
CC(C)c1cc(-c2ccccc2)c(C(N)=O)c(N)[n+]1[O-] [compound 20, 20] |  |  | Ki [5]: 46.2 µM
Cc1cnc(C(N)=O)c[n+]1[O-] [compound 31, 31] | 1.3 |  | 
CCc1cc(-c2ccccc2)c(C(N)=O)c(N)[n+]1[O-] [compound 21, 21] |  | 2.2 | 
CCc1cc(C(C)C)[n+]([O-])c(N)c1C(N)=O [compound 16, 16] |  |  | Ki [3]: 58.5 µM

Source: article PMC6179086 (Journal of Enzyme Inhibition and Medicinal Chemistry, 2018)
